Values of other authors as cited in PubChem BioAssay AID1259409 (Chemical Carcinogenesis Research Information System (CCRIS), 2018).

System: rodent chemically induced tumor inhibition, incidence and multiplicity
Assay: CCRIS tumor inhibitor studies
Conditions: Species: RAT

Structure (SMILES): O=C(O)O
- tumour outcome (control, treated, inhibition, significance) (Carcinogen: AZOXYMETHANE, 25843-45-2, Dose [Inhibitor]: 0, 2% IN DIET FOR 13 WK BEGINNING 36 WK POST LAST CARCINOGEN DOSE (STUDY DURATION: 49 WK), Route [Inhibitor]: ORAL, Strain/Sex: F344/MALE, Target Tissue: Type of Lesion: COLON: ADENOCARCINOMA, Dose [Carcinogen]: 12 MG/KG BW IN 0.9% SALINE TWICE, Promoter: CHOLIC ACID, 81-25-4): 26%, 31%, -19%, not significant
- tumour outcome (control, treated, inhibition, significance) (Carcinogen: AZOXYMETHANE, 25843-45-2, Dose [Inhibitor]: 0, 2% IN DIET FOR 13 WK BEGINNING 36 WK POST LAST CARCINOGEN DOSE (STUDY DURATION: 49 WK), Route [Inhibitor]: ORAL, Strain/Sex: F344/MALE, Target Tissue: Type of Lesion: COLON: ADENOMA, Dose [Carcinogen]: 12 MG/KG BW IN 0.9% SALINE TWICE, Promoter: CHOLIC ACID, 81-25-4): 81%, 89%, -10%, not significant
- tumour outcome (control, treated, inhibition, significance) (Carcinogen: AZOXYMETHANE, 25843-45-2, Dose [Inhibitor]: 0, 2% IN DIET FOR 13 WK BEGINNING 36 WK POST LAST CARCINOGEN DOSE (STUDY DURATION: 49 WK), Route [Inhibitor]: ORAL, Strain/Sex: F344/MALE, Target Tissue: Type of Lesion: SMALL INTESTINE: ADENOCARCINOMA, Dose [Carcinogen]: 12 MG/KG BW IN 0.9% SALINE TWICE, Promoter: CHOLIC ACID, 81-25-4): 23%, 14%, 39%, not significant
- tumour outcome (control, treated, inhibition, significance) (Carcinogen: AZOXYMETHANE, 25843-45-2, Dose [Inhibitor]: 0, 2% IN DIET FOR 13 WK BEGINNING 36 WK POST LAST CARCINOGEN DOSE (STUDY DURATION: 49 WK), Route [Inhibitor]: ORAL, Strain/Sex: F344/MALE, Target Tissue: Type of Lesion: SMALL INTESTINE: ADENOMA, Dose [Carcinogen]: 12 MG/KG BW IN 0.9% SALINE TWICE, Promoter: CHOLIC ACID, 81-25-4): 17%, 14%, 18%, not significant
- tumour outcome (control, treated, inhibition, significance) (Carcinogen: AZOXYMETHANE, 25843-45-2, Dose [Inhibitor]: 0, 2% IN DIET FOR 34 WK BEGINNING 1 WK POST LAST CARCINOGEN DOSE (STUDY DURATION: 49 WK), Route [Inhibitor]: ORAL, Strain/Sex: F344/MALE, Target Tissue: Type of Lesion: COLON: ADENOCARCINOMA, Dose [Carcinogen]: 12 MG/KG BW IN 0.9% SALINE TWICE, Promoter: CHOLIC ACID, 81-25-4): 26%, 18%, 31%, not significant
- tumour outcome (control, treated, inhibition, significance) (Carcinogen: AZOXYMETHANE, 25843-45-2, Dose [Inhibitor]: 0, 2% IN DIET FOR 34 WK BEGINNING 1 WK POST LAST CARCINOGEN DOSE (STUDY DURATION: 49 WK), Route [Inhibitor]: ORAL, Strain/Sex: F344/MALE, Target Tissue: Type of Lesion: COLON: ADENOMA, Dose [Carcinogen]: 12 MG/KG BW IN 0.9% SALINE TWICE, Promoter: CHOLIC ACID, 81-25-4): 81%, 59%, 27%, p<0.05
- tumour outcome (control, treated, inhibition, significance) (Carcinogen: AZOXYMETHANE, 25843-45-2, Dose [Inhibitor]: 0, 2% IN DIET FOR 34 WK BEGINNING 1 WK POST LAST CARCINOGEN DOSE (STUDY DURATION: 49 WK), Route [Inhibitor]: ORAL, Strain/Sex: F344/MALE, Target Tissue: Type of Lesion: SMALL INTESTINE: ADENOCARCINOMA, Dose [Carcinogen]: 12 MG/KG BW IN 0.9% SALINE TWICE, Promoter: CHOLIC ACID, 81-25-4): 23%, 16%, 30%, not significant
- tumour outcome (control, treated, inhibition, significance) (Carcinogen: AZOXYMETHANE, 25843-45-2, Dose [Inhibitor]: 0, 2% IN DIET FOR 34 WK BEGINNING 1 WK POST LAST CARCINOGEN DOSE (STUDY DURATION: 49 WK), Route [Inhibitor]: ORAL, Strain/Sex: F344/MALE, Target Tissue: Type of Lesion: SMALL INTESTINE: ADENOMA, Dose [Carcinogen]: 12 MG/KG BW IN 0.9% SALINE TWICE, Promoter: CHOLIC ACID, 81-25-4): 17%, 7%, 59%, not significant
- tumour outcome (control, treated, inhibition, significance) (Carcinogen: N-BUTYL-N-(4-HYDROXYBUTYL)NITROSAMINE, 3817-11-6, Dose [Inhibitor]: 5% DIET DAILY FOR 34 WK STARTING AFTER CARCINOGEN TREATMENT (STUDY DURATION: 38 WK), Route [Inhibitor]: ORAL, Strain/Sex: F344/MALE, Target Tissue: Type of Lesion: URINARY BLADDER: PAPILLOMA, Dose [Carcinogen]: 0.01% IN DRINKING WATER FOR 4 WK, Promoter: NONE USED): 33%, 37%, -12%, not significant
- tumour outcome (control, treated, inhibition, significance) (Carcinogen: N-METHYL-N'-NITRO-N-NITROSOGUANIDINE, 70-25-7, Dose [Inhibitor]: 0, 7.5% IN DIET FOR FIRST 20 WK THEN BASAL DIET FOR DURATION OF STUDY (STUDY DURATION: 40 WK), Route [Inhibitor]: ORAL, Strain/Sex: WISTAR/MALE, Target Tissue: Type of Lesion: GLANDULAR STOMACH: ADENOCARCINOMA, Dose [Carcinogen]: 100 MG/L IN DRINKING WATER FOR FIRST 20 WK, Promoter: NONE USED): 3/20 (15%), 3/19 (16%), -7%, not significant
- tumour outcome (control, treated, inhibition, significance) (Carcinogen: N-NITROSOMETHYLBENZYLAMINE, 937-40-6, Dose [Inhibitor]: 0, 20000 PPM IN DIET FOR DURATION OF STUDY BEGINNING 1 WK POST CARCINOGEN TREATMENT (STUDY DURATION: 25 WK), Route [Inhibitor]: ORAL, Strain/Sex: F344/MALE, Target Tissue: Type of Lesion: ESOPHAGUS: TUMOR, Dose [Carcinogen]: 1 MG/KG 3/WK FOR 5 WK, Promoter: NONE USED): 15/15 (100%), 14/15 (93%), 7%, not significant
- tumour outcome (control, treated, inhibition, significance) (Carcinogen: N-NITROSOMETHYLBENZYLAMINE, 937-40-6, Dose [Inhibitor]: 0, 20000 PPM IN DIET FOR DURATION OF STUDY BEGINNING 2 WK PRIOR TO CARCINOGEN TREATMENT (STUDY DURATION: 25 WK), Route [Inhibitor]: ORAL, Strain/Sex: F344/MALE, Target Tissue: Type of Lesion: ESOPHAGUS: TUMOR, Dose [Carcinogen]: 1 MG/KG 3/WK FOR 5 WK, Promoter: NONE USED): 15/15 (100%), 13/15 (87%), 13%, not significant
- tumour outcome (control, treated, inhibition, significance) (Dose [Inhibitor]: 0, 6.2 MG, 2 INJECTIONS ONCE INTO EACH POLE OF RIGHT KIDNEY ADMINISTERED WITH CARCINOGEN (STUDY DURATION: 109 WK), Route [Inhibitor]: INTRARENAL, Strain/Sex: F344/NCR/MALE, Target Tissue: Type of Lesion: KIDNEY: TUMOR, Dose [Carcinogen]: 5 MG, 2 INJECTIONS ONCE INTO EACH POLE OF RIGHT KIDNEY, Promoter: NONE USED): 25/40 (63%), 4/20 (20%), 68%, not calculated
- tumour outcome (control, treated, inhibition, significance) (Dose [Inhibitor]: 0, 7.5 UMOL (MG) INJECTED WITH CARCINOGEN INTO THIGH OF BOTH HIND LIMBS (STUDY DURATION: 79 WK), Route [Inhibitor]: INTRAMUSCULAR, Strain/Sex: F344/MALE, Target Tissue: Type of Lesion: INJECTION SITE: SARCOMA, Dose [Carcinogen]: 2.5 MG PER SITE INJECTED INTO THIGH OF BOTH HIND LIMBS ONCE, Promoter: NONE USED): 100%, 100%, 0%, not significant
- tumour outcome (control, treated, inhibition, significance) (Dose [Inhibitor]: 0, 15.5 UMOL (MG) INJECTED WITH CARCINOGEN INTO THIGH OF BOTH HIND LIMBS (STUDY DURATION: 79 WK), Route [Inhibitor]: INTRAMUSCULAR, Strain/Sex: F344/MALE, Target Tissue: Type of Lesion: INJECTION SITE: SARCOMA, Dose [Carcinogen]: 2.5 MG PER SITE INJECTED INTO THIGH OF BOTH HIND LIMBS ONCE, Promoter: NONE USED): 100%, 95%, 5%, not significant
- tumour outcome (control, treated, inhibition, significance) (Dose [Inhibitor]: 0, 30 UMOL (MG) INJECTED WITH CARCINOGEN INTO THIGH OF BOTH HIND LIMBS (STUDY DURATION: 79 WK), Route [Inhibitor]: INTRAMUSCULAR, Strain/Sex: F344/MALE, Target Tissue: Type of Lesion: INJECTION SITE: SARCOMA, Dose [Carcinogen]: 2.5 MG PER SITE INJECTED INTO THIGH OF BOTH HIND LIMBS ONCE, Promoter: NONE USED): 100%, 55%, 45%, not calculated
- tumour outcome (control, treated, inhibition, significance) (Dose [Inhibitor]: 0, 60 UMOL (MG) INJECTED WITH CARCINOGEN INTO THIGH OF BOTH HIND LIMBS (STUDY DURATION: 79 WK), Route [Inhibitor]: INTRAMUSCULAR, Strain/Sex: F344/MALE, Target Tissue: Type of Lesion: INJECTION SITE: SARCOMA, Dose [Carcinogen]: 2.5 MG PER SITE INJECTED INTO THIGH OF BOTH HIND LIMBS ONCE, Promoter: NONE USED): 100%, 60%, 40%, not significant
- tumour outcome (control, treated, inhibition, significance) (Dose [Inhibitor]: 0, 120 UMOL (MG) INJECTED INTO NAPE OF NECK (STUDY DURATION: 79 WK), Route [Inhibitor]: SUBCUTANEOUS, Strain/Sex: F344/MALE, Target Tissue: Type of Lesion: INJECTION SITE: SARCOMA, Dose [Carcinogen]: 2.5 MG PER SITE INJECTED INTO THIGH OF BOTH HIND LIMBS, Promoter: NONE USED): 100%, 100%, 0%, not significant
- tumour outcome (control, treated, inhibition, significance) (Dose [Inhibitor]: 0, 120 UMOL (MG) INJECTED WITH CARCINOGEN INTO THIGH OF BOTH HIND LIMBS (STUDY DURATION: 79 WK), Route [Inhibitor]: INTRAMUSCULAR, Strain/Sex: F344/MALE, Target Tissue: Type of Lesion: INJECTION SITE: SARCOMA, Dose [Carcinogen]: 2.5 MG PER SITE INJECTED INTO THIGH OF BOTH HIND LIMBS, Promoter: NONE USED): 100%, 55%, 45%, not calculated
